# Reference: US9062284B2, “Uses and detection of herbicide resistance genes for resistance to aryloxyalkanoate herbicides” (Dow ArgoSciences LLC, priority 2007, dated 2015)
# Legend:
# [1] = system: PAT/Cry1F-transformed Arabidopsis (auxin-sensitive control); assay: Herbicide response of PAT/Cry1F transformed control Arabidopsis; type: in vivo, Arabidopsis thaliana; details: for % Injury 20-40% (individuals) / % Injury <20% (individuals) / % Injury >40% (individuals) / % Injury Ave: 14 DAT
# Description: (§1) T1 plants were then randomly assigned to various rates of 2,4-D. For Arabidopsis, 50 g ae/ha 2,4-D is an effective dose to distinguish sensitive plants from ones with meaningful levels of resistance. Elevated rates were also applied to determine relative levels of resistance (280, 560, 1120, or 2240 g ae/ha). Tables 11 and 12 show comparisons drawn to an aryloxyalkanoate herbicide resistance gene (AAD-12 (v1)) previously described in PCT/US2006/042133.
# (§2) All auxin herbicide applications were made using the DeVilbiss sprayer as described above to apply 703 L/ha spray volume (0.4 ml solution/3-inch pot) or applied by track sprayer in a 187 L/ha spray volume. 2,4-D used was either technical grade (Sigma, St. Louis, Mo.) dissolved in DMSO and diluted in water (<1% DMSO final concentration) or the commercial dimethylamine salt formulation (456 g ae/L, NuFarm, St Joseph, Mo.). Dichlorprop used was commercial grade formulated as potassium salt of R-dichlorprop (600 g ai/L, AH Marks). As herbicide rates increased beyond 800 g ae/ha, the pH of the spray solution became exceedingly acidic, burning the leaves of young, tender Arabidopsis plants and complicating evaluation of the primary effects of the herbicides.
# (§3) The first Arabidopsis transformations were conducted using AAD-13 (v1) (plant optimized gene). T1 transformants were first selected from the background of untransformed seed using a glufosinate selection scheme. Over 160,000 T1 seed were screened and 238 glufosinate resistant plants were identified (PAT gene), equating to a transformation/selection frequency of 0.15% which lies in the normal range of selection frequency of constructs where PAT+Liberty are used for selection. T1 plants selected above were subsequently transplanted to individual pots and sprayed with various rates of commercial aryloxyalkanoate herbicides. Table 11 compares the response of AAD-13 (v1) and control genes to impart 2,4-D resistance to Arabidopsis T1 transformants. Response is presented in terms of % visual injury 2 WAT. […] An arithmetic mean and standard deviation is presented for each treatment. The range in individual response is also indicated in the last column for each rate and transformation. PAT/Cry1F-transformed Arabidopsis served as an auxin-sensitive transformed control. The AAD-13 (v1) gene imparted herbicide resistance to individual T1 Arabidopsis plants. Within a given treatment, the level of plant response varied greatly and can be attributed to the fact each plant represents an independent transformation event. Of important note, at each 2,4-D rate tested, there were individuals that were unaffected while some were severely affected. […] At high rates the spray solution becomes highly acidic unless buffered therefore some of the injury may be attributed to the acidity of the spray solution. Arabidopsis grown mostly in the growth chamber has a very thin cuticle and severe burning effects can complicate testing at these elevated rates. Nonetheless, many individuals have survived 2,240 g ae/ha 2,4-D with little or no injury.
# (§4) The ability of AAD-13 (v1) to provide resistance to other aryloxyalkanoate auxin herbicides in transgenic Arabidopsis was determined by foliar application of various substrates. T2 generation Arabidopsis seed was stratified, and sown into selection trays much like that of Arabidopsis (Example 6.4). A transformed-control line containing PAT and the insect resistance gene Cry1F was planted in a similar manner. Seedlings were transferred to individual 3-inch pots in the greenhouse. All plants were sprayed with the use of a track sprayer set at 187 L/ha. The plants were sprayed with a range of pyridyloxyacetate herbicides: 200-800 g ae/ha triclopyr (Garlon 3A, Dow AgroSciences) and 200-800 g ae/ha fluoroxypyr (Starane, Dow AgroSciences). […]
# [2] = system: Homozygous AAD-12 (v1) gene T4 Arabidopsis plants; assay: Herbicide response of homozygous AAD-12 (v1) T4 Arabidopsis; type: in vivo, Arabidopsis thaliana; details: for % Injury 20-40% (individuals) / % Injury <20% (individuals) / % Injury >40% (individuals) / % Injury Ave: 14 DAT
# Description: as §1, §2, §3, §4
# [3] = biological target: T1, AAD-13 (v2) (Sphingobium herbicidovorans, UniProt Q700X4); type: biochemical; details: substrate 1 mM; rate as percentage of 2,4-D rate in same sample set; propionate rates divided by two
# T1 construct: His tag (C); made in house; host or cells: E. coli BL-21, pET-26b(+)
# T1 sequence (Q700X4 other isoform, or with tags, fused parts or gaps): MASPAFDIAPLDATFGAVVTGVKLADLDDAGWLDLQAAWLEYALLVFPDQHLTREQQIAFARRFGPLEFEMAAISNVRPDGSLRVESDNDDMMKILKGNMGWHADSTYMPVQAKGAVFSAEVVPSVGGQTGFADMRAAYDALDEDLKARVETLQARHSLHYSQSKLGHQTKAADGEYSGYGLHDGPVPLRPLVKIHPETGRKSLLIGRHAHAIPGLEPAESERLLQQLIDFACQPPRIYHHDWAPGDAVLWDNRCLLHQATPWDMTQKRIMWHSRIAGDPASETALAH
# Description: In order to test a broad range of substrates, the production of succinate from the breakdown of α-ketoglutarate was detected spectrophotometricly using a protocol based on the method of Luo et. al. (2006) (Anal. Biochem. 353: 69-74). As depicted in FIG. 3, the concomitant breakdown of α-ketoglutarate and the substrate of interest via AAD-13, results in the production of succinate. Succinate is further modified to succinyl-CoA by succinyl-CoA synthetase which consumes ATP and produces ADP. ADP is then consumed by the commonly employed pyruvate kinase/lactate dehydrogenase enzymatic coupling system (Sigma P0294). The resulting conversion of NADH to NAD is monitored spectrophotometrically at 340 nm.
# Identification of AAD-13 (v2) substrates in vitro was based on enzymatic activity detected during continuous spectrophotometric monitoring of a 0.2 mL reaction volume in a 96 well microtiter plate. Reaction conditions were as follows: 100 mM MOPS pH 7.0, 0.4 mM NADH, 0.4 mM ATP, 0.4 mM CoA, 1 mM PEP, 10 mM MgCl2, 0.1 mM […] (solubilized in HCl), and 0.1 mM ascorbate, 1 mM α-ketoglutarate and sufficient AAD-13 (v2) to produce an observable rate in the presence of 2,4-D. Coupling enzymes (SCS/PK/LDH) were adjusted by batch to ensure adequate coupling, and potential substrates were generally assayed at 1 mM. Alterations in substrate concentrations were made as needed to adjust for solubility. Reactions were initiated by either the addition of AAD-13 (v2) or potential substrate. The rate of substrate independent conversion of α-ketoglutarate to succinate by AAD was monitored under the above assay conditions and subtracted from the observed reaction rates. […] Additionally, propionate compounds were checked for pyruvate contamination by spectrophotometrically monitoring the consumption of NADH in the presence of compound and PK/LDH.
# Reaction rates are reported as a percentage of the 2,4-D reaction rate obtained in the same sample set. […] It should be noted that faster rates can be more difficult to accurately compare depending on the percentage of available substrate consumed. […] As a result, highly efficient substrates will be properly grouped when compared to low efficiency substrates. Within the grouping of highly efficient substrates however, compounds may not be quantitatively separated by a screen using single rates of substrate and AAD.
smiles,measurement,setting,value
"CNC.O=C(O)COc1ccc(Cl)cc1Cl [2,4-D DMA]",% Injury 20-40% (individuals),[1]; 280 g ae/ha postemergence,0
same,% Injury <20% (individuals),[1]; 280 g ae/ha postemergence,0
same,% Injury >40% (individuals),[1]; 280 g ae/ha postemergence,20
same,% Injury Ave,[1]; 280 g ae/ha postemergence,100%
same,% Injury 20-40% (individuals),[1]; 560 g ae/ha postemergence,0
same,% Injury <20% (individuals),[1]; 560 g ae/ha postemergence,0
same,% Injury >40% (individuals),[1]; 560 g ae/ha postemergence,20
same,% Injury Ave,[1]; 560 g ae/ha postemergence,100%
same,% Injury 20-40% (individuals),[1]; 1120 g ae/ha postemergence,0
same,% Injury <20% (individuals),[1]; 1120 g ae/ha postemergence,0
same,% Injury >40% (individuals),[1]; 1120 g ae/ha postemergence,20
same,% Injury Ave,[1]; 1120 g ae/ha postemergence,100%
same,% Injury 20-40% (individuals),[1]; 2240 g ae/ha postemergence,0
same,% Injury <20% (individuals),[1]; 2240 g ae/ha postemergence,0
same,% Injury >40% (individuals),[1]; 2240 g ae/ha postemergence,20
same,% Injury Ave,[1]; 2240 g ae/ha postemergence,100%
same,% Injury 20-40% (individuals),[2]; 280 g ae/ha postemergence,0
same,% Injury <20% (individuals),[2]; 280 g ae/ha postemergence,20
same,% Injury >40% (individuals),[2]; 280 g ae/ha postemergence,0
same,% Injury Ave,[2]; 280 g ae/ha postemergence,0%
same,% Injury 20-40% (individuals),[2]; 560 g ae/ha postemergence,0
same,% Injury <20% (individuals),[2]; 560 g ae/ha postemergence,20
same,% Injury >40% (individuals),[2]; 560 g ae/ha postemergence,0
same,% Injury Ave,[2]; 560 g ae/ha postemergence,1%
same,% Injury 20-40% (individuals),[2]; 1120 g ae/ha postemergence,0
same,% Injury <20% (individuals),[2]; 1120 g ae/ha postemergence,20
same,% Injury >40% (individuals),[2]; 1120 g ae/ha postemergence,0
same,% Injury Ave,[2]; 1120 g ae/ha postemergence,2%
same,% Injury 20-40% (individuals),[2]; 2240 g ae/ha postemergence,3
same,% Injury <20% (individuals),[2]; 2240 g ae/ha postemergence,16
same,% Injury >40% (individuals),[2]; 2240 g ae/ha postemergence,1
same,% Injury Ave,[2]; 2240 g ae/ha postemergence,13%
"C[C@@H](Oc1ccc(Cl)cc1Cl)C(=O)O [R-dichloroprop, R-dichlorprop]",% of 24D activity,[3],19%
same,% Injury 20-40% (individuals),[2]; 800 g ae/ha postemergence,0
same,% Injury <20% (individuals),[2]; 800 g ae/ha postemergence,0
same,% Injury >40% (individuals),[2]; 800 g ae/ha postemergence,20
same,% Injury Ave,[2]; 800 g ae/ha postemergence,100%
Nc1c(Cl)c(F)nc(OCC(=O)O)c1Cl [fluoroxypyr],% of 24D activity,[3],67%
same,Ave. % Injury 14DAT,[1]; 200 g ae/ha foliar-applied,100%
same,Ave. % Injury 14DAT,[1]; 400 g ae/ha foliar-applied,100%
same,Ave. % Injury 14DAT,[1]; 800 g ae/ha foliar-applied,100%
same,Ave. % Injury 14DAT,[2]; 200 g ae/ha foliar-applied,48%
same,Ave. % Injury 14DAT,[2]; 400 g ae/ha foliar-applied,55%
same,Ave. % Injury 14DAT,[2]; 800 g ae/ha foliar-applied,60%
O=C(O)COc1nc(Cl)c(Cl)cc1Cl [triclopyr],% of 24D activity,[3],6%
same,Ave. % Injury 14DAT,[1]; 200 g ae/ha foliar-applied,100%
same,Ave. % Injury 14DAT,[1]; 400 g ae/ha foliar-applied,100%
same,Ave. % Injury 14DAT,[1]; 800 g ae/ha foliar-applied,100%
same,Ave. % Injury 14DAT,[2]; 200 g ae/ha foliar-applied,25%
same,Ave. % Injury 14DAT,[2]; 400 g ae/ha foliar-applied,33%
same,Ave. % Injury 14DAT,[2]; 800 g ae/ha foliar-applied,79%
